Experimental data published in patent publication US11643436B2, “Polypeptide compound, pharmaceutical composition, preparation method and application thereof” (CHENGDU SINTANOVO BIOTECHNOLOGY CO., LTD., priority 2019, dated 2023).
Read-outs that look alike come from different tables or passages of the source.

Columns and labels:
human κ-opioid receptor = human κ-opioid receptor (Homo sapiens (Human), UniProt P41145); assay: Forskolin-stimulated cAMP inhibition in HEK293 cells, κ-opioid receptor agonism; type: cell-based; conditions: HEK293 cells highly expressing human κ-opioid receptor, read-out: KOR (EC50)
Procedure: (§1) Forskolin can stimulate the release of cAMP from HEK293 cells with high expression of human κ (or μ, or δ)-opioid receptors. […] The efficacy of the compounds of the invention as κ-opioid receptor agonists was determined by measuring the ability of the compounds of Examples to inhibit adenylate cyclase activity.
(§2) Cell culture: The HEK293 cell line highly expressing human κ (or μ, or δ)-opioid receptor were cultured in DMEM medium containing 10% FBS.
(§3) Stimulation: the test compound was 4-fold diluted in a gradient manner to obtain 10 concentrations, and 50 nl of each was transferred to a 384-well plate, and then 10 nl Forskolin was added; the cells were digested, re-suspended, and counted; and then 10 μl of cell suspension (5×10^5 cell/mL) was added, and the cells were mixed gently, and incubated at 23° C. for 60 minutes.
(§4) Detection: cAMP Assay Kit (Cisbio) was used, cAMPD2 and Anti-cAMP conjugate were added, and the resultant mixture was incubated for 1 h at room temperature. The plate was read using envision (Perkin Elmer) and EC50 was obtained by means of fitting with a four-parameter equation.

[1] = Caco-2 membrane permeability assay; type: in vitro ADME; conditions: human, Caco-2, A-B direction, pH 7.4, 37° C.
Procedure: The Caco-2 cell line is a human colon adenocarcinoma cell line that differentiates in culture and is used to model the epithelial lining of the human small intestine. Compounds of the present invention were tested in a membrane permeability assay using Caco-2 cell membrane layer in a standard assay. The apparent permeability coefficient (Papp) can be determined in the apical-to-basolateral (A-B) direction across cell monolayers cultured on 96-well polycarbonate membrane filters. The compound was maintained at pH 7.4 on the […] at a concentration of 5 μM, and the test plate was gently shaken and incubated at 37° C. for 120 minutes. Samples were taken at time zero from the donor side and at the end of the incubation period from both the donor and acceptor sides. Samples were analyzed by HPLC-MS/MS. The Papp value (expressed as […]) was then calculated based on the appearance rate of compound on the recipient side. Papp can be calculated by the following equation: Papp=(VA×[drug]acceptor)/(Area×Time×[drug]initial, donor) wherein Papp is the apparent permeability; VA is the volume of the acceptor side, Area is the surface area of the membrane, [drug]initial, donor is the concentration on the donor side at time zero, [drug]acceptor is the concentration of the compounds on the recipient side at the end of the incubation period, Time is the total incubation time.

human μ-opioid receptor = human μ-opioid receptor (Homo sapiens (Human), UniProt P35372); assay: Forskolin-stimulated cAMP inhibition in HEK293 cells, μ-opioid receptor; type: cell-based; conditions: HEK293 cells highly expressing human μ-opioid receptor, read-out: MOR (EC50)
Procedure: as §1, §2, §3, §4

human δ-opioid receptor = human δ-opioid receptor (Homo sapiens (Human), UniProt P41143); assay: Forskolin-stimulated cAMP inhibition in HEK293 cells, δ-opioid receptor; type: cell-based; conditions: HEK293 cells highly expressing human δ-opioid receptor, read-out: DOR (EC50)
Procedure: as §1, §2, §3, §4

cytochrome P450 CYP 2C19 = cytochrome P450 CYP 2C19 (Homo sapiens (Human), UniProt P33261); assay: Inhibition of cytochrome P450 in human liver microsomes, CYP 2C19; type: in vitro ADME
Procedure: (§5) The human liver microsomes (0.253 mg/mL protein) containing cytochrome P450, test compounds (0.05-50 μM), CYPs substrates (10 μM […], 5 μM diclofenac, 30 μM mephenytoin, 5 μM dextromethorphan hydrobromide, 2 μM midazolam), 1.0 mM NADP were incubated at 37° C. for 10 minutes. Naflavone, sulfafenpyrazole, N-3-benzylnivan, quinidine, and ketoconazole were used as reference inhibitors.

cytochrome P450 CYP 3A4 = cytochrome P450 CYP 3A4 (Homo sapiens (Human), UniProt P08684); assay: Inhibition of cytochrome P450 in human liver microsomes, CYP 3A4; type: in vitro ADME
Procedure: as §5

cytochrome P450 CYP 1A2 = cytochrome P450 CYP 1A2 (Homo sapiens (Human), UniProt P05177); assay: Inhibition of cytochrome P450 in human liver microsomes, CYP 1A2; type: in vitro ADME
Procedure: as §5

cytochrome P450 CYP 2D6 = cytochrome P450 CYP 2D6 (Homo sapiens (Human), UniProt P10635); assay: Inhibition of cytochrome P450 in human liver microsomes, CYP 2D6; type: in vitro ADME
Procedure: as §5

cytochrome P450 CYP 2C9 = cytochrome P450 CYP 2C9 (Homo sapiens (Human), UniProt P11712); assay: Inhibition of cytochrome P450 in human liver microsomes, CYP 2C9; type: in vitro ADME
Procedure: as §5

ICR male mice = assay: Acetic acid writhing test in mice; type: in vivo; conditions: IV administration 15 minutes before 0.6% acetic acid i.p.; writhes within 15 min
Procedure: The analgesic effect of the compound of the invention was evaluated by measuring the analgesic ED50 of the compounds of Examples in the acetic acid writhing test in mice.
The ICR male mice (18-25 g) were randomly separated into the drug group and the model group. 15 minutes after IV administration, 0.6% (v/v) acetic acid solution was intraperitoneally injected at 10 mL/kg. The number of writhes of the mice within 15 min was counted. The inhibition rate on the writhes was calculated based on the number of writhes. The ED50 of the compound to be tested was calculated based on inhibition rate according to a four-parameter equation.

Chain of human δ-opioid receptor (P41143 whole entry, looked up): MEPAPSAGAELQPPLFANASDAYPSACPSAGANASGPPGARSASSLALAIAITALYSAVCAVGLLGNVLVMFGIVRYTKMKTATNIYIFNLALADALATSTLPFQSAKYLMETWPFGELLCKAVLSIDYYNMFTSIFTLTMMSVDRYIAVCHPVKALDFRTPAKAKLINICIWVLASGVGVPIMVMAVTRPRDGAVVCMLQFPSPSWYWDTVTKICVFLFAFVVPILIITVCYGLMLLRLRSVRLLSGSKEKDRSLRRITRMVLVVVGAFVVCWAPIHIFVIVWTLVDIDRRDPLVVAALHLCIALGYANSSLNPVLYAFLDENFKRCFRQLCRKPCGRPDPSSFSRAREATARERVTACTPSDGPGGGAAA
Chain of cytochrome P450 CYP 3A4 (P08684 whole entry): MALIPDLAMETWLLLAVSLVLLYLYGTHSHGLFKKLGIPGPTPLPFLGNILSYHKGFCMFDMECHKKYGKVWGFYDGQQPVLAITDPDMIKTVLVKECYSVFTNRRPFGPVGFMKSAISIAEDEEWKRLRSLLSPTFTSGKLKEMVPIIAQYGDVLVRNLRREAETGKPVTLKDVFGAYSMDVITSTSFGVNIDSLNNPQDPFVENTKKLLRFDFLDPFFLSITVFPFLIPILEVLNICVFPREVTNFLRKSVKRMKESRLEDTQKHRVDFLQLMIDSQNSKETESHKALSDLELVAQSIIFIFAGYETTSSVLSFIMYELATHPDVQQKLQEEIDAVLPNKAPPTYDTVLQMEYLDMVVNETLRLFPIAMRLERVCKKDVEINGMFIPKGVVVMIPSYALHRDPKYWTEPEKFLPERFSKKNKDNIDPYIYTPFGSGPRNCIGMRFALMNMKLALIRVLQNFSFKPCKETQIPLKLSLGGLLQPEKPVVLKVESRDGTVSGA
Chain of cytochrome P450 CYP 2C19 (P33261 whole entry): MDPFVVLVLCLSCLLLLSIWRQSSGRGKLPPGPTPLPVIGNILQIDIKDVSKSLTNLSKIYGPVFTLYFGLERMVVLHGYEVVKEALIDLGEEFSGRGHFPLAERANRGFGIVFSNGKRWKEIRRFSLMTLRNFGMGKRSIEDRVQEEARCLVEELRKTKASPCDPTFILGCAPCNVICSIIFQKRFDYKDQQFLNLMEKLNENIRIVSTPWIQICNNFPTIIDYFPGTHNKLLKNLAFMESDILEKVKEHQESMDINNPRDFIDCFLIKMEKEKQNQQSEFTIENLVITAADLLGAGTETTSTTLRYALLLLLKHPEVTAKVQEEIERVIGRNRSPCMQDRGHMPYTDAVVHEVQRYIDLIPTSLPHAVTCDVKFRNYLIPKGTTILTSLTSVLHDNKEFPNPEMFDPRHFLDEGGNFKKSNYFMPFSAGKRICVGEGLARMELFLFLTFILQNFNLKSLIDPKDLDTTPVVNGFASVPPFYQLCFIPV
Chain of cytochrome P450 CYP 2C9 (P11712 whole entry): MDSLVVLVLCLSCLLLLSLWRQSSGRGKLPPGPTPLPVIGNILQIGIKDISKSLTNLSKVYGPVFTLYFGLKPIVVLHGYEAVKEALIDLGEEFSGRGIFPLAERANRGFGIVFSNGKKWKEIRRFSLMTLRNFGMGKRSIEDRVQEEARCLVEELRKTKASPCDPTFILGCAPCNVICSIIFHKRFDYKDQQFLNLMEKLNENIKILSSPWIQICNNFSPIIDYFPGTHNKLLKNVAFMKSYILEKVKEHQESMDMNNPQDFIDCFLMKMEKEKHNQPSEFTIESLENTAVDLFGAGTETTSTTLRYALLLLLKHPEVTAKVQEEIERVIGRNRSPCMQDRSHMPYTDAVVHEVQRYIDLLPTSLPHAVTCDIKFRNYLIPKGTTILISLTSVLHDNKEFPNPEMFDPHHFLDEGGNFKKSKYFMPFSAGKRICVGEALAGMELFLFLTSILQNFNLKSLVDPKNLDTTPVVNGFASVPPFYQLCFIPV
Chain of cytochrome P450 CYP 1A2 (P05177 whole entry): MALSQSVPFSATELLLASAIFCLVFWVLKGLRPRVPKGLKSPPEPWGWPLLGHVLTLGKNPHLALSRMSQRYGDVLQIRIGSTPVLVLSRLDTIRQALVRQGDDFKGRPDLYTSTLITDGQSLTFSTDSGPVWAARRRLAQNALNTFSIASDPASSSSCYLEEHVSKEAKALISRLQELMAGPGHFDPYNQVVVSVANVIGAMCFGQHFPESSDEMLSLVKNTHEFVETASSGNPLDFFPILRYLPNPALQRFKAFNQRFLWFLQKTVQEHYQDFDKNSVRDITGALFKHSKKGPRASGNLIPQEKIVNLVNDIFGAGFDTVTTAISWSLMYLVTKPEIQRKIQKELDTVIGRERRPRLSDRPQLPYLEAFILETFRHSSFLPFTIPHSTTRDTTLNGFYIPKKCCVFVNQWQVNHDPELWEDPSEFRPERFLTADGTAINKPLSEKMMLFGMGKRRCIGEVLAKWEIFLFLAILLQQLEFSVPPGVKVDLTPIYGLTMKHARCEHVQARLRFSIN
Chain of cytochrome P450 CYP 2D6 (P10635 whole entry): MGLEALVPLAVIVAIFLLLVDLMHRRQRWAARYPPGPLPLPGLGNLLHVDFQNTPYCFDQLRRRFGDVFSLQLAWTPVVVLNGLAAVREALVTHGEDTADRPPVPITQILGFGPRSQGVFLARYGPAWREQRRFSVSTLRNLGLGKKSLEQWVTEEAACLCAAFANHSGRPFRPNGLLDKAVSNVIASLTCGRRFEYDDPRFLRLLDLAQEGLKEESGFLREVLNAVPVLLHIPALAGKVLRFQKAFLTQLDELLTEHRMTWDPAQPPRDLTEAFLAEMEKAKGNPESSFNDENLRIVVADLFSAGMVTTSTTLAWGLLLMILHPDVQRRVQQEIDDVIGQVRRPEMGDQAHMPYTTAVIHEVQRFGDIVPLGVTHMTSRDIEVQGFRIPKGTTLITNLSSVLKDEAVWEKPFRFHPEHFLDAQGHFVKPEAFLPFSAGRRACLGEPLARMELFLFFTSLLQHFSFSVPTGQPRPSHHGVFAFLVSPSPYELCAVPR

| Compound | EC50 (human κ-opioid receptor) [nM] | Papp A→B at 120 min, 5 μM [1] [×10⁻⁶ cm/s] | EC50 (human μ-opioid receptor) [µM] | EC50 (human δ-opioid receptor) [µM] | other results |
| --- | --- | --- | --- | --- | --- |
| CC(C)C[C@@H](NC(=O)[C@@H](Cc1ccccc1)NC(=O)[C@H](N)Cc1ccccc1)C(=O)N[C@H](CCCCN)C(=O)N1CC=C(B(O)O)C1 [TM-3] | 0.0547 | < 0.2 | > 10 | > 10 |  |
| CC(C)C[C@@H](NC(=O)[C@@H](Cc1ccccc1)NC(=O)[C@H](N)Cc1ccccc1)C(=O)N[C@H](CCCCN)C(=O)NCCB(O)O [TM-26] |  | < 0.1 |  |  | IC50 (cytochrome P450 CYP 2C19; microsomes): > 50 µM; IC50 (cytochrome P450 CYP 3A4; microsomes): > 50 µM; IC50 (cytochrome P450 CYP 1A2; microsomes): > 50 µM; IC50 (cytochrome P450 CYP 2D6; microsomes): > 50 µM; IC50 (cytochrome P450 CYP 2C9; microsomes): > 50 µM |
| CC(C)C[C@@H](NC(=O)[C@@H](Cc1ccccc1)NC(=O)[C@H](N)Cc1ccccc1)C(=O)N[C@H](CCCCN)C(=O)N1CCC2(CC1)CC(B(O)O)C2 [TM-7] | 0.0087 |  | > 10 | > 10 |  |
| CC(C)C[C@@H](NC(=O)[C@@H](Cc1ccccc1)NC(=O)[C@H](N)Cc1ccccc1)C(=O)N[C@H](CCCCN)C(=O)N1CCC=C(B(O)O)C1 [TM-5] | 0.027 |  | > 10 | > 10 |  |
| CC(C)C[C@@H](NC(=O)[C@@H](Cc1ccccc1)NC(=O)[C@H](N)Cc1ccccc1)C(=O)N[C@H](CCCCN)C(=O)N1CCCC[C@H]1B(O)O [TM-13A, (R)-1-(D-Phe-D-Phe-D-Leu-D-Lys)-2-piperidine boronic acid] | 0.0946 |  | > 10 | > 10 |  |
| CC(C)C[C@@H](NC(=O)[C@@H](Cc1ccccc1)NC(=O)[C@H](N)Cc1ccccc1)C(=O)N[C@H](CCCCN)C(=O)N1CC[C@@H](B(O)O)C1 [TM-2A, (R)-1-(D-Phe-D-Phe-D-Leu-D-Lys)-3-pyrrolidineboronic acid] | 0.0331 | < 0.05 | > 10 | > 10 | ED50 (ICR male mice): 0.679 µg/kg |
| CC(C)C[C@@H](NC(=O)[C@@H](Cc1ccccc1)NC(=O)[C@H](N)Cc1ccccc1)C(=O)N[C@H](CCCCN)C(=O)N1CCC(B(O)O)CC1 [TM-1] | 0.0984 |  | > 10 | > 10 |  |
| CC(C)C[C@@H](NC(=O)[C@@H](Cc1ccccc1)NC(=O)[C@H](N)Cc1ccccc1)C(=O)N[C@H](CCCCN)C(=O)N1CCC(N)(B(O)O)CC1 [TM-8] | 0.0846 | < 0.1 | > 10 | > 10 |  |
| CC(C)C[C@@H](NC(=O)[C@@H](Cc1ccccc1)NC(=O)[C@H](N)Cc1ccccc1)C(=O)N[C@H](CCCCN)C(=O)N1CCC[C@H]1B(O)O [TM-9A, (R)-1-(D-Phe-D-Phe-D-Leu-D-Lys)-2-pyrrolidineboronic acid] |  | < 0.05 | > 10 | > 10 | ED50 (ICR male mice): 0.377 µg/kg |
| COCCOCCNCCCC[C@@H](NC(=O)[C@@H](CC(C)C)NC(=O)[C@@H](Cc1ccccc1)NC(=O)[C@H](N)Cc1ccccc1)C(=O)N1CC[C@H](B(O)O)C1 [TM-22B, (S)-1-(N2-D-Phe-D-Phe-D-Leu-N6-(2-(2-methoxyethoxy)ethyl)-D-Lys)-3-pyrrolidineboronic acid] | 0.0095 | < 0.1 | > 10 | > 10 | IC50 (cytochrome P450 CYP 2C19): > 50 µM; IC50 (cytochrome P450 CYP 3A4): > 50 µM; IC50 (cytochrome P450 CYP 1A2): > 50 µM; IC50 (cytochrome P450 CYP 2D6): > 50 µM; IC50 (cytochrome P450 CYP 2C9): > 50 µM |
